{"source": "ChEMBL document CHEMBL1127717", "about": "“Synthesis of new oligosaccharidyl-thio--cyclodextrins (CDS): a novel family of potent drug-targetting vectors” (1994)", "key": {"Saccharomyces cerevisiae": {"tested_on": "Saccharomyces cerevisiae", "test": "(§1) In vitro flocculation inhibitory ability was determined towards Yeast cell wall lectin (KbWCL)", "format": "functional"}, "[1]": {"test": "as §1", "format": "functional, Saccharomyces cerevisiae"}, "[2]": {"settings": "Saccharomyces cerevisiae, read-out: MIC"}}, "data": [{"molecule": "OC[C@H]1O[C@@H]2O[C@H]3[C@H](O)[C@@H](O)[C@@H](O[C@H]4[C@H](O)[C@@H](O)[C@@H](O[C@H]5[C@H](O)[C@@H](O)[C@@H](O[C@H]6[C@H](O)[C@@H](O)[C@@H](O[C@H]7[C@H](O)[C@@H](O)[C@@H](O[C@H]1[C@H](O)[C@H]2O)O[C@@H]7CO)O[C@@H]6CO)O[C@@H]5CO)O[C@@H]4CO)O[C@@H]3CO", "values": [{"measurement": "MIC", "setting": "Saccharomyces cerevisiae", "value": "No inhibition"}]}, {"molecule": "OC1OC[C@@H](O)[C@@H](O)[C@@H]1O", "note": "(stereo not given in full)", "values": [{"measurement": "MIC", "setting": "Saccharomyces cerevisiae", "value": "No inhibition"}]}, {"molecule": "OC[C@H]1O[C@H](OC[C@H]2O[C@H](O[C@]3(CO)O[C@H](CO)[C@@H](O)[C@@H]3O)[C@H](O)[C@@H](O)[C@@H]2O)[C@H](O)[C@@H](O)[C@H]1O", "note": "[RAFFINOSE]", "values": [{"measurement": "MIC", "setting": "[1]; [2]", "value": 1200, "unit": "µM"}]}, {"molecule": "O=C(CCCCCCCC(=O)N[C@@H]1O[C@@H](CO)[C@H](O)[C@H](O)[C@@H]1O)NC[C@@H]1O[C@@H]2O[C@H]3[C@H](O)[C@H](O)[C@@H](O[C@H]4[C@H](O)[C@H](O)[C@@H](O[C@H]5[C@H](O)[C@H](O)[C@@H](O[C@H]6[C@H](O)[C@H](O)[C@@H](O[C@H]7[C@H](O)[C@H](O)[C@@H](O[C@H]8[C@H](O)[C@H](O)[C@@H](O[C@H]1[C@H](O)[C@@H]2O)O[C@H]8CO)O[C@H]7CO)O[C@H]6CO)O[C@H]5CO)O[C@H]4CO)O[C@H]3CO", "values": [{"measurement": "MIC", "setting": "[1]; [2]", "value": 1700, "unit": "µM"}]}, {"molecule": "O=C(NC[C@@H]1O[C@@H]2O[C@H]3[C@H](O)[C@H](O)[C@@H](O[C@H]4[C@H](O)[C@H](O)[C@@H](O[C@H]5[C@H](O)[C@H](O)[C@@H](O[C@H]6[C@H](O)[C@H](O)[C@@H](O[C@H]7[C@H](O)[C@H](O)[C@@H](O[C@H]8[C@H](O)[C@H](O)[C@@H](O[C@H]1[C@H](O)[C@@H]2O)O[C@H]8CO)O[C@H]7CO)O[C@H]6CO)O[C@H]5CO)O[C@H]4CO)O[C@H]3CO)C(CS[C@@H]1O[C@@H](CO)[C@H](O)[C@H](O)[C@@H]1O)CS[C@@H]1O[C@@H](CO)[C@H](O)[C@H](O)[C@@H]1O", "values": [{"measurement": "MIC", "setting": "[1]; [2]", "value": 2000, "unit": "µM"}]}, {"molecule": "OC[C@H]1O[C@@H]2O[C@H]3[C@H](O)[C@@H](O)[C@@H](O[C@H]4[C@H](O)[C@@H](O)[C@@H](O[C@H]5[C@H](O)[C@@H](O)[C@@H](O[C@H]6[C@H](O)[C@@H](O)[C@@H](O[C@H]7[C@H](O)[C@@H](O)[C@@H](O[C@H]8[C@H](O)[C@@H](O)[C@@H](O[C@H]1[C@H](O)[C@H]2O)O[C@@H]8CO)O[C@@H]7CO)O[C@@H]6CO)O[C@@H]5CO)O[C@@H]4CO)O[C@@H]3CO", "values": [{"measurement": "MIC", "setting": "Saccharomyces cerevisiae", "value": "No inhibition"}]}, {"molecule": "O=[N+]([O-])c1ccc(O[C@H]2O[C@H](CO)[C@@H](O)[C@H](O)[C@H]2O)cc1", "note": "(stereo in doubt; form 2)", "values": [{"measurement": "MIC", "setting": "[1]", "value": 830, "unit": "µM"}]}, {"molecule": "OCC1OC(SCCSCC2OC3OC4C(CSCCSC5OC(CO)C(O)C(O)C5O)OC(OC5C(CSCCSC6OC(CO)C(O)C(O)C6O)OC(OC6C(CSCCSC7OC(CO)C(O)C(O)C7O)OC(OC7C(CSCCSC8OC(CO)C(O)C(O)C8O)OC(OC8C(CSCCSC9OC(CO)C(O)C(O)C9O)OC(OC9C(CSCCSC%10OC(CO)C(O)C(O)C%10O)OC(OC2C(O)C3O)C(O)C9O)C(O)C8O)C(O)C7O)C(O)C6O)C(O)C5O)C(O)C4O)C(O)C(O)C1O", "note": "(stereo not given)", "values": [{"measurement": "MIC", "setting": "[1]; [2]", "value": 410, "unit": "µM"}]}, {"molecule": "[Na+].[O-]CC1OC(SCC2OC3OC4C(CSC5OC(CO)C(O)C(O)C5O)OC(OC5C(CSC6OC(CO)C(O)C(O)C6O)OC(OC6C(CSC7OC(CO)C(O)C(O)C7O)OC(OC7C(CSC8OC(CO)C(O)C(O)C8O)OC(OC8C(CSC9OC(CO)C(O)C(O)C9O)OC(OC9C(CSC%10OC(CO)C(O)C(O)C%10O)OC(OC2C(O)C3O)C(O)C9O)C(O)C8O)C(O)C7O)C(O)C6O)C(O)C5O)C(O)C4O)C(O)C(O)C1O", "note": "(stereo in doubt; 6)", "values": [{"measurement": "MIC", "setting": "[1]", "value": 700, "unit": "µM"}]}, {"molecule": "O=[N+]([O-])c1ccc(O[C@H]2O[C@H](CO)[C@@H](O)[C@H](O)[C@H]2O)cc1", "note": "(stereo in doubt; form 1)", "values": [{"measurement": "MIC", "setting": "[1]", "value": 400, "unit": "µM"}]}, {"molecule": "OC[C@H]1O[C@H](OCC2O[C@@H](O)[C@H](O)[C@@H](O)[C@@H]2O)[C@H](O)[C@@H](O)[C@H]1O", "note": "(stereo not given in full) [MELIBIOSE]", "values": [{"measurement": "MIC", "setting": "[1]; [2]", "value": 600, "unit": "µM"}]}, {"molecule": "OC[C@@H]1O[C@@H](SC[C@@H]2O[C@@H]3O[C@H]4[C@H](O)[C@H](O)[C@@H](O[C@H]5[C@H](O)[C@H](O)[C@@H](O[C@H]6[C@H](O)[C@H](O)[C@@H](O[C@H]7[C@H](O)[C@H](O)[C@@H](O[C@H]8[C@H](O)[C@H](O)[C@@H](O[C@H]9[C@H](O)[C@H](O)[C@@H](O[C@H]2[C@H](O)[C@@H]3O)O[C@H]9CO)O[C@H]8CO)O[C@H]7CO)O[C@H]6CO)O[C@H]5CO)O[C@H]4CO)[C@@H](O)[C@@H](O)[C@@H]1O", "values": [{"measurement": "MIC", "setting": "[1]; [2]", "value": 3750, "unit": "µM"}]}, {"molecule": "C[C@H]1OC(O)[C@H](O)[C@@H](O)[C@H]1O", "note": "(stereo not given in full)", "values": [{"measurement": "MIC", "setting": "[1]; [2]", "value": 3500, "unit": "µM"}]}, {"molecule": "[Na+].[O-]CC1OC(SCC2OC3OC4C(CSC5OC(CO)C(O)C(O)C5O)OC(OC5C(CSC6OC(CO)C(O)C(O)C6O)OC(OC6C(CSC7OC(CO)C(O)C(O)C7O)OC(OC7C(CSC8OC(CO)C(O)C(O)C8O)OC(OC8C(CSC9OC(CO)C(O)C(O)C9O)OC(OC9C(CSC%10OC(CO)C(O)C(O)C%10O)OC(OC2C(O)C3O)C(O)C9O)C(O)C8O)C(O)C7O)C(O)C6O)C(O)C5O)C(O)C4O)C(O)C(O)C1O", "note": "(stereo in doubt; 5)", "values": [{"measurement": "MIC", "setting": "[1]", "value": 1660, "unit": "µM"}]}, {"molecule": "OC[C@H]1OC(O)[C@H](O)[C@@H](O)[C@@H]1O", "note": "(stereo not given in full)", "values": [{"measurement": "MIC", "setting": "Saccharomyces cerevisiae", "value": "No inhibition"}]}]}
